Experiments:
[1] = system: female house mice, Mus musculus (strain: CD-1); test: Two-choice T-tube olfactometer bioassay: deterrence from approaching and feeding on a food bait; format: in vivo; conditions: Experiments 1 to 12; single test stimulus 100 μl or 100 mg on cotton ball next to food bait vs unscented chamber
Excerpt: Female house mice, Mus musculus (strain: CD-1®), were obtained from Charles River Laboratories Ltd (Saint-Constant, QC J5A 2E7, Canada) and cared for by Animal Care Services of Simon Fraser University (“SFU”). On arrival, mice were assigned to four groups of five female mice each. Each group was accommodated in cages (50 cm×40 cm×20 cm) lined with commercial corn cob bedding (Anderson's Bed o'cobs, The Andersons Inc. Maumee, Ohio 43537, USA), provided with Nalgene toys, running wheels (Jamieson's Pet Food Distributors, Ltd, Delta, BC V4G 1C9, Canada), and provisioned with commercial rodent food (LabDiet® Certified Rodent Diet, LabDiet®, St Louis, Mo. 63144, USA) as well as water ad libitum. Cages were maintained at a temperature of 21° C. and a relative humidity of 50%. A reverse photoperiod (12 hours light; 12 hours dark) was maintained to facilitate behavioral bioassays during normal working hours. […]
FIG. 3 depicts data obtained by additional testing of those plant essential oils found most promising in pre-screening experiments (Experiments 2, 5, 8, 9, and 11), running a total of 8 replicates for each of experiments 2, 5, 8, 9 and 11. First-choice, first-fed, and time-spent data were analyzed using g-tests and Student's t-tests, respectively, for these experiments. […]

[2] = system: mosquitoes, beetles, and termites; conditions: known from prior knowledge; cited from earlier work

## CC1CCC(C(C)C)C(O)C1 (centres unmarked) [menthol, Menthol]
[1]
  first fed (scented chamber fed in first by mice): never fed in first

## C=CCc1ccc(O)c(OC)c1 [Eugenol]
[2]
  repellency to insects: repellent

Source: patent US20220087247A1, “MOUSE REPELLENTS, DEVICES, AND METHODS OF USING SUCH” (priority 2020, published 2022)
